Where two headings read alike, the source gives them in different places.
Test: Phase 1 four-period crossover study of relative bioavailability and food effect, Compound 1 Capsules vs Oral Solution, plasma PK
Format: in vivo, human
Conditions: for AUC(0-inf) / AUC(0-t) / Cmax / half-life / Tmax: human, po; for AUC(0-inf) / AUC(0-t) / Cmax / half-life / Tmax / AUC0-inf, geometric mean / AUC0-t, geometric mean / Cmax, geometric mean: plasma, healthy subjects; for AUC(0-inf) / AUC(0-t) / Cmax / half-life / Tmax / AUC0-inf geometric mean ratio (GMR) Test/Reference / AUC0-t geometric mean ratio (GMR) Test/Reference / Cmax geometric mean ratio (GMR) Test/Reference: 30 mg; for Tmax: read-out: tmax, median
Description: In a Phase 1, single-center, open-label, four-period, two-sequence crossover study, Compound 1 capsules were evaluated for safety, tolerability, and relative bioavailability. Twelve (12) subjects completed all four periods of the study; subjects who replaced discontinued subjects were allocated to the same randomization sequence as those discontinued. Up to 24 subjects were recruited into the study.
This study consisted of four periods:
Period 1: Subjects (N=20) were randomized on a 1:1 basis to receive a single 30-mg dose of Compound 1 Capsules or a single 30-mg dose of Compound 1 Oral Solution on Day 1. Study drug was administered in the fasting state. Subjects were confined to the inpatient facility from Day −1 until they were discharged on Day 3.
On Day 8, study drug was administered in the fasting state. Subjects were confined to the inpatient facility from Day 7 until they were discharged on Day 10.
Period 3: Food Effect (high fat): All subjects received a single 30 mg dose of Compound 1 Capsules on Day 15. Study drug was administered after a high-fat meal. Subjects were confined to the inpatient facility from Day 14 until they were discharged on Day 17.
Period 4: Food Effect (standard): All subjects received a single 30 mg dose of Compound 1 Capsules on Day 22. Study drug was administered after a standard meal. Subjects were confined to the inpatient facility from Day 21 until they were discharged on Day 24.
Subjects were admitted on the day before the dose was scheduled to be administered (i.e., on Day −1, Day 7, Day 14 and Day 21) in order to undergo the predose assessments.
The Compound 1 Capsules dose was administered as two capsules with 8 ounces (240 mL) of water; both capsules were to be swallowed as quickly as possible. Compound 1 Oral Solution was prepared as approximately 40 mL, to be swallowed all at once, followed by approximately 200 mL of water that was used to rinse the dosing bottle approximately five times. The time of swallowing the initial 40 mL solution or capsules was the time zero for all assessments.
Subjects were not allowed to consume water for 1 hour before and after dosing, except for water consumed during dosing. After 1 hour postdose, water was allowed ad libitum. Subjects were required to fast overnight (minimum of 10 hours) prior to the scheduled dosing. In periods 1 and 2, subjects were administered a standard meal 4 or more hours after the dose was administered.
(§1) In period 3 (food effect high-fat meal), subjects were administered a high-fat meal 30 minutes prior to administration of the Compound 1 Capsules. Subjects should have eaten this meal in 30 minutes or less, and the Compound 1 dose was administered 30 minutes after the start of the meal. No other food was allowed for at least 4 hours postdose.
as §1, with “period 4” for “period 3”, “effect standard” for “effect high-fat”, “a standard” for “a high-fat”, “after” for “after the”
Plasma samples were collected for PK analysis of Compound 1 at the following sampling times relative to dosing in each period: predose on Day 1 and at 15 and 30 minutes and 1, 1.5, 2, 3, 4, 6, 8, 10, 12, 16, 24 (Day 2), and 48 (Day 3) hours postdose.
The plasma samples were kept frozen at approximately −70 to −80° C. until analyzed. They were packed as directed to avoid breakage during transit and with sufficient dry ice to prevent thawing for at least 72 hours. A specimen-identification form or equivalent was completed and sent to the laboratory with each set of samples.
Bioanalyses of plasma samples for the determination of Compound 1 were conducted utilizing validated LC-MS/MS methods at Agilux Laboratories, Worcester, MA.
The BLQ values between evaluable concentrations and the terminal BLQ values were set to ‘missing’. […]

[1] = single 30 mg oral dose, Capsules, fed [high-fat meal]
[2] = single 30 mg oral dose, Capsules, fed [standard meal]
[3] = single 30-mg oral dose, Capsules, fasted
[4] = single 30-mg oral dose, Oral Solution, fasted
[5] = test Fasted Capsules / reference Fasted Solution
[6] = test Fed Capsules [Standard meal] / reference Fasted Capsules
[7] = test Fed Capsules [Standard meal] / reference Fasted Solution
[8] = test Fed Capsules [high-fat meal] / reference Fasted Capsules
[9] = test Fed Capsules [high-fat meal] / reference Fasted Solution

SMILES: C[C@@]1(O)CC[C@H]2[C@H](CC[C@@H]3[C@@H]2CC[C@]2(C)[C@@H](C(=O)Cn4cc(C#N)cn4)CC[C@@H]32)C1 [Compound 1, 1-(2-((3R,5R,8R,9R,10S,13S,14S,17S)-3-hydroxy-3,13-dimethylhexadecahydro-1H-cyclopenta[a]phenanthren-17-yl)-2-oxoethyl)-1H-pyrazole-4-carbonitrile]
- AUC(0-inf) (single 30 mg oral dose, Capsules, fed [high-fat meal], read-out: AUC0-inf, arithmetic mean): 896 ng·h/mL
- AUC(0-inf) (single 30 mg oral dose, Capsules, fed [high-fat meal], read-out: AUC0-inf, geometric mean): 867 ng·h/mL
- AUC(0-inf) (single 30 mg oral dose, Capsules, fed [high-fat meal], read-out: AUC0-inf, median): 878 ng·h/mL
- AUC(0-t) (single 30 mg oral dose, Capsules, fed [high-fat meal], read-out: AUC0-t, arithmetic mean): 846 ng·h/mL
- AUC(0-t) (single 30 mg oral dose, Capsules, fed [high-fat meal], read-out: AUC0-t, geometric mean): 834 ng·h/mL
- AUC(0-t) (single 30 mg oral dose, Capsules, fed [high-fat meal], read-out: AUC0-t, median): 822 ng·h/mL
- Cmax (single 30 mg oral dose, Capsules, fed [high-fat meal], read-out: Cmax, arithmetic mean): 64.4 ng/mL
- Cmax (single 30 mg oral dose, Capsules, fed [high-fat meal], read-out: Cmax, geometric mean): 62.8 ng/mL
- Cmax (single 30 mg oral dose, Capsules, fed [high-fat meal], read-out: Cmax, median): 66.3 ng/mL
- half-life (single 30 mg oral dose, Capsules, fed [high-fat meal], read-out: t1/2, arithmetic mean (converted)): 12.9 h
- half-life (single 30 mg oral dose, Capsules, fed [high-fat meal], read-out: t1/2, median (converted)): 12.7 h
- Tmax [1]: 5.97 h
- AUC(0-inf) (single 30 mg oral dose, Capsules, fed [standard meal], read-out: AUC0-inf, arithmetic mean): 1020 ng·h/mL
- AUC(0-inf) (single 30 mg oral dose, Capsules, fed [standard meal], read-out: AUC0-inf, geometric mean): 1010 ng·h/mL
- AUC(0-inf) (single 30 mg oral dose, Capsules, fed [standard meal], read-out: AUC0-inf, median): 1060 ng·h/mL
- AUC(0-t) (single 30 mg oral dose, Capsules, fed [standard meal], read-out: AUC0-t, arithmetic mean): 852 ng·h/mL
- AUC(0-t) (single 30 mg oral dose, Capsules, fed [standard meal], read-out: AUC0-t, geometric mean): 838 ng·h/mL
- AUC(0-t) (single 30 mg oral dose, Capsules, fed [standard meal], read-out: AUC0-t, median): 881 ng·h/mL
- Cmax (single 30 mg oral dose, Capsules, fed [standard meal], read-out: Cmax, arithmetic mean): 65.2 ng/mL
- Cmax (single 30 mg oral dose, Capsules, fed [standard meal], read-out: Cmax, geometric mean): 63.1 ng/mL
- Cmax (single 30 mg oral dose, Capsules, fed [standard meal], read-out: Cmax, median): 63.2 ng/mL
- half-life (single 30 mg oral dose, Capsules, fed [standard meal], read-out: t1/2, arithmetic mean (converted)): 14.9 h
- half-life (single 30 mg oral dose, Capsules, fed [standard meal], read-out: t1/2, median (converted)): 15.8 h
- Tmax [2]: 4 h
- AUC(0-inf) (single 30-mg oral dose, Capsules, fasted, read-out: AUC0-inf, arithmetic mean): 642 ng·h/mL
- AUC(0-inf) (single 30-mg oral dose, Capsules, fasted, read-out: AUC0-inf, geometric mean): 640 ng·h/mL
- AUC(0-inf) (single 30-mg oral dose, Capsules, fasted, read-out: AUC0-inf, median): 650 ng·h/mL
- AUC(0-t) (single 30-mg oral dose, Capsules, fasted, read-out: AUC0-t, arithmetic mean): 544 ng·h/mL
- AUC(0-t) (single 30-mg oral dose, Capsules, fasted, read-out: AUC0-t, geometric mean): 530 ng·h/mL
- AUC(0-t) (single 30-mg oral dose, Capsules, fasted, read-out: AUC0-t, median): 552 ng·h/mL
- Cmax (single 30-mg oral dose, Capsules, fasted, read-out: Cmax, arithmetic mean): 23 ng/mL
- Cmax (single 30-mg oral dose, Capsules, fasted, read-out: Cmax, geometric mean): 21.8 ng/mL
- Cmax (single 30-mg oral dose, Capsules, fasted, read-out: Cmax, median): 20.4 ng/mL
- half-life (single 30-mg oral dose, Capsules, fasted, read-out: t1/2, arithmetic mean (converted)): 15.6 h
- half-life (single 30-mg oral dose, Capsules, fasted, read-out: t1/2, median (converted)): 15.7 h
- Tmax [3]: 4.02 h
- AUC(0-inf) (single 30-mg oral dose, Oral Solution, fasted, read-out: AUC0-inf, arithmetic mean): 798 ng·h/mL
- AUC(0-inf) (single 30-mg oral dose, Oral Solution, fasted, read-out: AUC0-inf, geometric mean): 770 ng·h/mL
- AUC(0-inf) (single 30-mg oral dose, Oral Solution, fasted, read-out: AUC0-inf, median): 816 ng·h/mL
- AUC(0-t) (single 30-mg oral dose, Oral Solution, fasted, read-out: AUC0-t, arithmetic mean): 795 ng·h/mL
- AUC(0-t) (single 30-mg oral dose, Oral Solution, fasted, read-out: AUC0-t, geometric mean): 776 ng·h/mL
- AUC(0-t) (single 30-mg oral dose, Oral Solution, fasted, read-out: AUC0-t, median): 788 ng·h/mL
- Cmax (single 30-mg oral dose, Oral Solution, fasted, read-out: Cmax, arithmetic mean): 120 ng/mL
- Cmax (single 30-mg oral dose, Oral Solution, fasted, read-out: Cmax, geometric mean): 114 ng/mL
- Cmax (single 30-mg oral dose, Oral Solution, fasted, read-out: Cmax, median): 115 ng/mL
- half-life (single 30-mg oral dose, Oral Solution, fasted, read-out: t1/2, arithmetic mean (converted)): 13.5 h
- half-life (single 30-mg oral dose, Oral Solution, fasted, read-out: t1/2, median (converted)): 13.3 h
- Tmax [4]: 1 h
- AUC0-inf, geometric mean [1]: 866.90 ng·h/mL
- AUC0-t, geometric mean [1]: 834.06 ng·h/mL
- AUC0-inf, geometric mean [2]: 1013.04 ng·h/mL
- AUC0-t, geometric mean [2]: 837.55 ng·h/mL
- Cmax, geometric mean [2]: 63.12 ng/mL
- AUC0-inf, geometric mean [3]: 639.69 ng·h/mL
- AUC0-t, geometric mean [3]: 529.62 ng·h/mL
- Cmax, geometric mean [3]: 21.81 ng/mL
- AUC0-inf, geometric mean [4]: 770.31 ng·h/mL
- AUC0-t, geometric mean [4]: 776.27 ng·h/mL
- AUC0-inf geometric mean ratio (GMR) Test/Reference [5]: 0.830
- AUC0-t geometric mean ratio (GMR) Test/Reference [5]: 0.682
- Cmax geometric mean ratio (GMR) Test/Reference [5]: 0.191
- AUC0-inf geometric mean ratio (GMR) Test/Reference [6]: 1.584
- AUC0-t geometric mean ratio (GMR) Test/Reference [6]: 1.581
- Cmax geometric mean ratio (GMR) Test/Reference [6]: 2.894
- AUC0-inf geometric mean ratio (GMR) Test/Reference [7]: 1.315
- AUC0-t geometric mean ratio (GMR) Test/Reference [7]: 1.079
- Cmax geometric mean ratio (GMR) Test/Reference [7]: 0.552
- AUC0-inf geometric mean ratio (GMR) Test/Reference [8]: 1.355
- AUC0-t geometric mean ratio (GMR) Test/Reference [8]: 1.575
- Cmax geometric mean ratio (GMR) Test/Reference [8]: 2.879
- AUC0-inf geometric mean ratio (GMR) Test/Reference [9]: 1.125
- AUC0-t geometric mean ratio (GMR) Test/Reference [9]: 1.074
- Cmax geometric mean ratio (GMR) Test/Reference [9]: 0.549

— patent US20230310459A1, “NEUROACTIVE STEROIDS AND THEIR METHODS OF USE” (Sage Therapeutics, Inc., priority 2017, published 2023)
